The values below come from ChEMBL document CHEMBL6153167, “Development of the Pyrido[2,3-d]pyrimidin-7(8H)-one Scaffold toward Potent and Selective NUAK1 Inhibitors” (ACS Med Chem Lett, 2025).

A short description of data set [1]: Selectivity ratio of IC50 for inhibition of MARK3 (unknown origin) to IC50 for inhibition of NUAK1 (unknown origin).
Data set [2] can be described thus: Protein binding in mouse plasma assessed as fraction unbound at 10 uM incubated for 6 hrs with rotation by dialysis based LC-MS/MS analysis. It counts as ADME, cell-free.
Data set [3] in a line: Unbound brain-to-plasma concentration ratio (Kp,uu, brain) in ICR mouse at 2.5 mg/kg, iv and measured upto 6 hrs by LC-MS/MS analysis. The note with it: read-out: K(p,uu,brain). The class given is ADME, organism-based.

For orientation: fraction unbound means free concentration divided by total concentration.

For the molecule `CC(C)N1CCN(c2ccc(Nc3ncc4ccn(CC5CCOC(C)(C)C5)c4n3)cc2)CC1` (stereo not given), the Ratio IC50 in data set [1] was 2290.
On the same count and under the same terms, then `CN1C2CC1CN(c1ccc(Nc3ncc4ccn(CC5CCOCC5)c4n3)cc1)C2`, with 2000.
Take `Cc1cc(=O)n(C2CCCC2)c2nc(Nc3ccc(N4CCNCC4)cc3)ncc12`: the Ratio IC50 in data set [1] is greater than 11.
As to `CN1CCN(c2ccc(Nc3ncc4cc(C#N)c(=O)n(C5CCCC5)c4n3)cc2)CC1` [NARAZACICLIB], the unbound share (fraction unbound) at 6 h, 10 µM in data set [2] is 0.006. Also, the Kp uu at 6 h in data set [3] came out at 0.036.
